Assay results published in PubChem BioAssay (NCI).
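Where inhibition never reached the appropriate level, the endpoint shown equals the highest concentration tested. Otherwise, values were interpolated linearly from a five-concentration, 48-hour dose response in 96-well plates. Abbreviation: GI50, concentration required for 50% inhibition of growth. TGI: concentration producing complete growth inhibition.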

Columns and labels:
Test in all cases: NCI tumour cell line growth inhibition, 48 h; in the data active means GI50 below about 0.43 µM; inactive means the rest
[1] = system: 786-0 renal
[2] = system: A498 renal
[3] = system: A549 NSCLC
[4] = system: ACHN renal
[5] = system: BT-549 breast
[6] = system: CAKI-1 renal
[7] = system: CCRF-CEM leukemia
[8] = system: COLO 205 colon
[9] = system: DU-145 prostate
[10] = system: EKVX NSCLC
[11] = system: HCC-2998 colon
[12] = system: HCT-116 colon
[13] = system: HCT-15 colon
[14] = system: HL-60(TB) leukemia
[15] = system: HOP-62 NSCLC
[16] = system: HOP-92 NSCLC
[17] = system: HS 578T breast
[18] = system: HT29 colon
[19] = system: K-562 leukemia
[20] = system: KM12 colon
[21] = system: LOX IMVI melanoma
[22] = system: M14 melanoma
[23] = system: MALME-3M melanoma
[24] = system: MCF7 breast
[25] = system: MDA-MB-231 breast
[26] = system: MDA-MB-435
[27] = system: MOLT-4 leukemia
[28] = system: NCI-H226 lung
[29] = system: NCI-H23 lung
[30] = system: NCI-H460 lung
[31] = system: NCI-H522 lung
[32] = system: NCI/ADR-RES ovarian
[33] = system: OVCAR-3 ovarian
[34] = system: OVCAR-4 ovarian
[35] = system: OVCAR-5 ovarian
[36] = system: OVCAR-8 ovarian
[37] = system: PC-3 prostate
[38] = system: RPMI-8226 leukemia
[39] = system: RXF 393 renal
[40] = system: SF-268 CNS
[41] = system: SF-295 CNS
[42] = system: SF-539 CNS
[43] = system: SK-MEL-2 melanoma
[44] = system: SK-MEL-28 melanoma
[45] = system: SK-MEL-5 melanoma
[46] = system: SK-OV-3 ovarian
[47] = system: SN12C renal
[48] = system: SNB-19 CNS
[49] = system: SNB-75 CNS
[50] = system: SR leukemia
[51] = system: SW-620 colon
[52] = system: T-47D breast
[53] = system: TK-10 renal
[54] = system: U251 CNS
[55] = system: UACC-257 melanoma
[56] = system: UACC-62 melanoma
[57] = system: UO-31 renal

O=C(N/N=C\c1c(O)ccc2ccccc12)C1CC1
93.8 µM: TGI [8]
91.1 µM: TGI [49]
> 100 µM: TGI [1] | TGI [3] | TGI [4] | TGI [7] | TGI [9] | TGI [10] | TGI [11] | TGI [12] | TGI [13] | TGI [14] | TGI [16] | TGI [17] | TGI [18] | TGI [19] | TGI [20] | TGI [21] | TGI [24] | TGI [25] | TGI [26] | TGI [27] | TGI [29] | TGI [30] | TGI [31] | TGI [32] | TGI [34] | TGI [35] | TGI [36] | TGI [37] | TGI [38] | TGI [39] | TGI [40] | TGI [42] | TGI [43] | TGI [44] | TGI [45] | TGI [47] | TGI [48] | TGI [50] | TGI [51] | TGI [52] | TGI [53] | TGI [54]
inactive: GI50 [1] 5.16 µM | GI50 [2] 16.8 µM | GI50 [3] 7.13 µM | GI50 [4] 2.82 µM | GI50 [5] 5.78 µM | GI50 [6] 1.6 µM | GI50 [7] 0.889 µM | GI50 [8] 11.2 µM | GI50 [9] 13.4 µM | GI50 [10] 2.91 µM | GI50 [11] 9.8 µM | GI50 [12] 3.04 µM | GI50 [13] 1.22 µM | GI50 [14] 1.53 µM | GI50 [15] 4.34 µM | GI50 [16] 16.7 µM | GI50 [17] 17.2 µM | GI50 [18] 13 µM | GI50 [19] 3.64 µM | GI50 [20] 6.12 µM | GI50 [21] 1.79 µM | GI50 [22] 3.76 µM | GI50 [23] 7.76 µM | GI50 [24] 3.41 µM | GI50 [25] 7.5 µM | GI50 [26] 11.6 µM | GI50 [27] 3.17 µM | GI50 [28] 13.1 µM | GI50 [29] 5.94 µM | GI50 [30] 3 µM | GI50 [31] 5.75 µM | GI50 [32] 2.76 µM | GI50 [33] 2.2 µM | GI50 [34] 2.6 µM | GI50 [35] 19.6 µM | GI50 [36] 3.12 µM | GI50 [37] 11.7 µM | GI50 [38] 7.91 µM | GI50 [39] 8.91 µM | GI50 [40] 4.1 µM | GI50 [41] 2.26 µM | GI50 [42] 4.48 µM | GI50 [43] 18.9 µM | GI50 [44] 17.8 µM | GI50 [45] 3.81 µM | GI50 [46] 3.36 µM | GI50 [47] 11.7 µM | GI50 [48] 12.9 µM | GI50 [49] 6.68 µM | GI50 [50] 2.55 µM | GI50 [51] 6.55 µM | GI50 [52] 4.9 µM | GI50 [53] 30.4 µM | GI50 [54] 2.05 µM | GI50 [55] 3.74 µM | GI50 [56] 3.25 µM | GI50 [57] 0.863 µM
84.2 µM: TGI [28]
46 µM: TGI [33]
97.1 µM: TGI [55]
56 µM: TGI [22]
54 µM: TGI [23]
8.23 µM: TGI [41]
8.22 µM: TGI [6]
67.2 µM: TGI [46]
22.8 µM: TGI [56]
91.4 µM: TGI [15]
14.9 µM: TGI [57]
88.7 µM: TGI [5]
52 µM: TGI [2]
